Values after ≈ are worked out from the molar mass of the structure shown. Read-outs that look alike come from different tables or passages of the source.
Assays:
Assay type in all cases: physicochemical
[1] = Chemical hydrolysis stability at pH 1 and pH 7.4 (HPLC); details: 37° C., over 12 h
Outline: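 Compound dissolved in 0.1 N HCl or PBS and held at 37° C over 12 h, sampling at set intervals for remaining prodrug by reversed-phase C8 HPLC with 220 nm detection. Peak areas expressed relative to first injection, ln-plotted against time; t1/2 [h] derived assuming first-order kinetics.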

[2] = Solubility in Labrasol and TPGS/PG formulations
Description: Selected lipophilic carbonate compounds of formula I with promising Caco-2 permeabilities are formulated with different lipids/lipophilic excipients and/or micelles forming compounds in order to increase their solubilities. The following formulations are prepared by mixing the ingredients mentioned below: • i) Formulations comprising solubilizers in the form of lipides/lipophilic excipients: • ia) Formulation comprising Labrasol® and the selected compounds of Formula I • Labrasol®: • Caprylocaproyl macrogol-8-glyceride (CAS No. 85536-07-8 and 84963-88-2). This is a mixture of mono-, di- and triesters of glycerol and of PEG 400 with medium-chain fatty acids (C8-C10) which is marketed, for example, by Gattefossé under the mark Labrasol®; Labrasol® has an HLB value (hydrophil-lipophil-balance, Griffin, W. C.: Classification of surface active agents by HLB, J. Soc. Cosmet. 1, 1949) of 14 and has the following composition by weight:
• ib) Formulation comprising NanoSolve® 5401 (Lipoid GmbH, Germany) and the selected compounds of formula I • ic) Formulation comprising TPGS/PG in a weight ratio of 25% by weight of TPGS to 75% by weight of PG and the selected compounds of formula I. • PG: propylene glycol • TPGS: Vitamin E TPGS NF (d-α-tocopheryl polyethylene glycol 1000 succinate) which is marketed, for example, by Eastman Chemical Co • ii) Formulation comprising a micelles forming agent: • iia) Aqueous formulation comprising 30% by weight of Cremophor® RH 40 (relating to the weight of the aqueous phase) in water and the selected compounds of formula I • Cremophor® RH 40: • Generic names: • Polyoxyl 40 Hydrogenated Castor Oil (USP/NF). • Macrogol-Glycerolhydroxystearat (DAB). • Polyoxyethylenglyceroltrihydroxystearat (DAC). • Cremophor RH 40 is a non-ionic solubilizer and emulsifying agent obtained by reacting 45 moles of ethylene oxide with 1 mole of hydrogenated castor oil. The main constituent of Cremophor RH 40 is glycerol polyethylene glycol oxystearate, which, together with fatty acid glycerol polyglycol esters, forms the hydrophobic part of the product. The hydrophilic part consists of polyethylene glycols and glycerol ethoxylate. Cremophor RH 40 is a white to yellowish thin paste at 20° C. The HLB value lies between 14 and 16. Cremophor RH 40 is marketed by BASF AG.
The solubility of selected compounds of formula I in these formulations is measured and compared to the solubility of the compounds in 0.1N HCl (pH 1.0), PBS buffer (pH 7.4), and two simulated gastric fluids (i.e., FaSSIF (pH 6.5) simulating fasting sate and FeSSIF (pH 5.0) simulating fed state) (see above for details).

[3] = Stability in TPGS/PG over 22 h; details: for Amount of compound: TPGS/PG, ambient temperature; for Amount of entacapone: entacapone formed in TPGS/PG
Description: The stability of selected compounds of formula I in TPGS/PG over 22 h is tested by the following procedure: […]
37.5 mg of compounds 15, 35 and 57, respectively […] of compound 63, are in each case added to 25 mL of TPGS/PG (25% by weight of TPGS, 75% by weight of PG) (concentration of compounds 15, 35, 57:1.5 mg/mL; concentration of compound 63:1.4 mg/mL). Each formulation obtained is stirred for 22 h at ambient temperature. The amount of the respective compound of formula I and the amount of entacapone are determined after 5 h, 8 h, 11 h, and 22 h by HPLC assay. Reversed phase gradient HPLC method, column YMC Pro C8, 50 mm×4.0 mm, 3 μm, Eluent A: Water:trifluoroacetic acid (100:0.5 (v/v)), Eluent B: Acetonitrile:trifluoroacetic acid (100:0.5 (v/v)). Column temperature 30° C., Flow rate 3.0 mL/min, Detection wavelength: 220 nm

[4] = Stability of TPGS/PG formulations in simulated gastric fluid (precipitate formation); details: for Precipitate formation, directly after addition: 1.0 mL TPGS/PG solution added to 10 mL SGF, visual inspection; for Precipitate formation, 24 h: TPGS/PG solution in SGF
Description: Simulated gastric fluid (SGF) is prepared as follows. 200 mg NaCl are dissolved in 70 mL H2O. 0.7 mL concentrated HCl is added. Subsequently, 320 mg of pepsin powder is added, and the mixture is filled up to 100 mL with H2O. A clear solution is obtained (pH 1-2).
2 mL TPGS/PG is added to 5-6 mg of the respective compound of formula I, and the obtained solutions are shaken for 5 h. […] 1.0 mL of the centrifuged solution is added drop-wise to 10 mL SGF. Precipitate formation is determined by visual inspection of each solution immediately after addition of the solution comprising the respective compound of formula I in TPGS/PG to SGF and after 24 hours.

[5] = pH 1, 0.1 N HCl, read-out: t1/2 at pH 1 (converted)
[6] = pH 7.4, PBS buffer, read-out: t1/2 at pH 7.4 (converted)
[7] = Labrasol, oil or lipid, read-out: Solubility Labrasol ®
[8] = organic solvent or mixture, 25% by weight TPGS, 75% by weight PG, read-out: Solubility TPGS/PG
[9] = 5 h, start 1.5 mg/mL (compound 63: 1.4 mg/mL)

SMILES | half-life [1, 5] [h] | half-life [1, 6] [h] | solubility [2, 7] [µg/mL] | solubility [2, 8] [µg/mL] | Amount of compound [3, 9] [mg/mL] | Amount of compound ([3]; 8 h) [mg/mL] | Amount of compound ([3]; 11 h) [mg/mL] | Amount of compound ([3]; 22 h) [mg/mL] | Amount of entacapone ([3]; 5 h) [mg/mL] | Amount of entacapone ([3]; 8 h) [mg/mL] | Amount of entacapone ([3]; 11 h) [mg/mL] | Amount of entacapone ([3]; 22 h) [mg/mL] | Precipitate formation, directly after addition [4] | Precipitate formation, 24 h [4]
CCCCCCCCOC(=O)Oc1cc(/C=C(\C#N)C(=O)N(CC)CC)cc([N+](=O)[O-])c1O [Compound 35, Carbonic acid 5-((E)-2-cyano-2-diethylcarbamoyl-vinyl)-2-hydroxy-3-nitro-phenyl ester octyl ester] | 14.4 | 6.8 | > 36000 | 2300 (≈ 4.98 mM) | 1.21 | 1.36 | 1.40 | 1.23 | 0.03 | 0.05 | 0.07 | 0.08 | clear | clear
CCCCC(CC)COC(=O)Oc1cc(/C=C(\C#N)C(=O)N(CC)CC)cc([N+](=O)[O-])c1O (centres unmarked) [Compound 15, Carbonic acid 5-((E)-2-cyano-2-diethylcarbamoyl-vinyl)-2-hydroxy-3-nitro-phenyl ester 2-ethyl-hexyl ester] | 15.6 | 7.2 | 50000 (≈ 108 mM) | 2400 (≈ 5.2 mM) | 1.23 | 1.23 | 1.16 | 1.05 | 0.05 | 0.06 | 0.10 | 0.17 | clear | clear
CCCC(C)OC(=O)Oc1cc(/C=C(\C#N)C(=O)N(CC)CC)cc([N+](=O)[O-])c1O (centres unmarked) [Compound 63, Carbonic acid 5-((E)-2-cyano-2-diethylcarbamoyl-vinyl)-2-hydroxy-3-nitro-phenyl ester 1-methyl-butyl ester] | 28.9 | 28.9 | 10000 (≈ 23.8 mM) | 1800 (≈ 4.29 mM) | 1.25 | 1.12 | 1.16 | 1.08 | 0.02 | 0.02 | 0.02 | 0.03 | clear | clear
CCN(CC)C(=O)/C(C#N)=C/c1cc(OC(=O)OCC2CCCCC2)c(O)c([N+](=O)[O-])c1 [Compound 57, Carbonic acid 5-((E)-2-cyano-2-diethylcarbamoyl-vinyl)-2-hydroxy-3-nitro-phenyl ester cyclohexylmethyl ester] | 16.5 | 7.7 | 22000 (≈ 49.4 mM) | 2500 (≈ 5.61 mM) | 1.37 | 1.39 | 1.35 | 1.31 | 0.03 | 0.04 | 0.05 | 0.08 | clear | clear

From US20080103191A1, “ENTACAPONE-DERIVATIVES” (priority 2006, published 2008)
